# Data reported in patent US9085562B2, “6-alkyl-N-(pyridin-2-yl)-4-aryloxypicolinamide analogs as mGluR5 negative allosteric modulators and methods of making and using the same” (Vanderbilt University, priority 2011, dated 2015).
# System: elevated plus maze
# Assay: Elevated plus maze
# Format: in vivo
# Settings: 10 mg/kg
# Protocol: Test compounds (1) and (2) were administrated at the 10 mg/kg and 30 mg/kg doses described in this figure. […] Prospective In Vivo Effects
row,SMILES,total distance traveled
1,"Cc1cc(Oc2cncc(F)c2)cc(C(=O)Nc2ccc(F)cn2)n1 [Compound (1), N-(5-fluoropyridin-2-yl)-4-((5-fluoropyridin-3-yl)oxy)-6-methylpicolinamide]",statistically significant beneficial effect

# Same assay, conditions: 30 mg/kg
row,SMILES,total distance traveled
1,"Cc1cc(Oc2cncc(F)c2)cc(C(=O)Nc2ccc(F)cn2)n1 [Compound (1), N-(5-fluoropyridin-2-yl)-4-((5-fluoropyridin-3-yl)oxy)-6-methylpicolinamide]",statistically significant beneficial effect

# System: not listed separately
# Assay: Cynomolgus monkey IV/PO pharmacokinetics
# Settings: in vivo; Cynomolgus monkey IV/PO
bioavailability [%],clearance [L/h/kg],half-life [h],SMILES
25 to 45,0.792,9.38,Cc1cc(Oc2cncc(F)c2)cc(C(=O)Nc2ccc(F)cn2)n1 [drawing 268]
42 to 45,0.924,6.04,Cc1cc(Oc2cncnc2)cc(C(=O)Nc2ccc(F)cn2)n1 [drawing 267]

# Same assay, conditions: in vivo; Cynomolgus monkey IV/PO; read-out: Vss
row,Vd [L/kg],SMILES
1,2.5,Cc1cc(Oc2cncnc2)cc(C(=O)Nc2ccc(F)cn2)n1 [drawing 267]

# Same assay, conditions: in vivo; Cynomolgus monkey PO
Cmax [µM],Tmax [h],SMILES
1.36,2,Cc1cc(Oc2cncc(F)c2)cc(C(=O)Nc2ccc(F)cn2)n1 [drawing 268]
0.858,3,Cc1cc(Oc2cncnc2)cc(C(=O)Nc2ccc(F)cn2)n1 [drawing 267]

# Target: T1, rat mGluR5 (Rattus norvegicus, UniProt P31424)
# T1 construct: expressed in transfected cells
# Assay: mGluR5 calcium mobilization assay (HEK 293A cells, FDSS)
# Format: cell-based
# Settings: HEK cells transfected with rat mGluR5; antagonism of glutamate EC80 response; Table 1
# Protocol: Human embryonic kidney (HEK) cells transfected with rat or human mGluR5 were plated in clear bottom assay plates for assay in a Functional Drug Screening System (FDSS). The cells were loaded with a Ca2+-sensitive fluorescent dye (e.g., Fluo-4), and the plates were washed and placed in the FDSS instrument. Test compound was applied to cells 3 seconds after baseline readings were taken. Cells were incubated with the test compounds for 140 seconds and then stimulated with an EC20 concentration of an mGluR5 agonist (e.g., glutamate, 3,5-dihydroxyphenylglycine, or quisqualate); 60-80 seconds later an EC80 concentration of agonist was added and readings taken for an additional 40 seconds. Data were collected at 1 Hz. […] Concentration response curves were generated using a four parameter logistical equation.
# The above described assay was operated in two modes. In the first mode (utilizing a triple add protocol), a range of concentrations of the present compounds were added to cells, followed by two single fixed concentrations of agonist (EC20 followed by EC80). If a compound acted as a potentiator, an EC50 value for potentiation of the EC20 response and a maximum extent of potentiation by the compound at this concentration of agonist was determined by non-linear curve fitting. If a compound acted as an antagonist, an IC50 value for antagonism of the EC80 response and a maximum extent of antagonism by the compound at this concentration of agonist was determined by non-linear curve fitting. In the second mode (utilizing a double add protocol), several fixed concentrations of the present compounds were added to various wells on a plate, followed by a range of concentrations of agonist for each concentration of present compound; the EC50 values for the agonist at each concentration of compound were determined by nonlinear curve fitting. A decrease in the EC50 value of the agonist with increasing concentrations of the present compounds (a leftward shift of the agonist concentration-response curve) is an indication of the degree of mGluR5 positive allosteric modulation at a given concentration of the present compound. An increase in the EC50 value of the agonist with increasing concentrations of the present compounds (a rightward shift of the agonist concentration response curve) is an indication of the degree of mGluR5 antagonism at a given concentration of the present compound. The second mode also indicates whether the present compounds also affect the maximum response to mGluR5 to agonists.
# The mGluR5 activity was determined using the metabotropic glutamate receptor activity assays in human embryonic kidney cells as described herein, wherein the human embryonic kidney cells were transfected with rat mGluR5. The mGluR5 activity data for some compounds are shown as the average of at least three experiments with the standard error in these cases. If no error is indicated for the mGluR5 activity, the values given represent the results from a single experiment or the average of two experiments. The compounds in Table 1 were synthesized with methods identical or analogous to those shown herein. The requisite starting materials were commercially available, described in the literature, or readily synthesized by one skilled in the art of organic synthesis.
# The cells were grown overnight at 37° C. in the presence of 5% CO2. […] Dye was removed, 20 μL of assay buffer was added, and the plate was incubated for 10 minutes at room temperature.
# Ca^2+ flux was measured using the Functional Drug Screening System (FDSS6000, Hamamatsu, Japan). After establishment of a fluorescence baseline for about 3 seconds, the compounds of the present invention were added to the cells, and the response in cells was measured.
# T1 sequence (P31424 21-1171 isoform P31424-2 limits assumed): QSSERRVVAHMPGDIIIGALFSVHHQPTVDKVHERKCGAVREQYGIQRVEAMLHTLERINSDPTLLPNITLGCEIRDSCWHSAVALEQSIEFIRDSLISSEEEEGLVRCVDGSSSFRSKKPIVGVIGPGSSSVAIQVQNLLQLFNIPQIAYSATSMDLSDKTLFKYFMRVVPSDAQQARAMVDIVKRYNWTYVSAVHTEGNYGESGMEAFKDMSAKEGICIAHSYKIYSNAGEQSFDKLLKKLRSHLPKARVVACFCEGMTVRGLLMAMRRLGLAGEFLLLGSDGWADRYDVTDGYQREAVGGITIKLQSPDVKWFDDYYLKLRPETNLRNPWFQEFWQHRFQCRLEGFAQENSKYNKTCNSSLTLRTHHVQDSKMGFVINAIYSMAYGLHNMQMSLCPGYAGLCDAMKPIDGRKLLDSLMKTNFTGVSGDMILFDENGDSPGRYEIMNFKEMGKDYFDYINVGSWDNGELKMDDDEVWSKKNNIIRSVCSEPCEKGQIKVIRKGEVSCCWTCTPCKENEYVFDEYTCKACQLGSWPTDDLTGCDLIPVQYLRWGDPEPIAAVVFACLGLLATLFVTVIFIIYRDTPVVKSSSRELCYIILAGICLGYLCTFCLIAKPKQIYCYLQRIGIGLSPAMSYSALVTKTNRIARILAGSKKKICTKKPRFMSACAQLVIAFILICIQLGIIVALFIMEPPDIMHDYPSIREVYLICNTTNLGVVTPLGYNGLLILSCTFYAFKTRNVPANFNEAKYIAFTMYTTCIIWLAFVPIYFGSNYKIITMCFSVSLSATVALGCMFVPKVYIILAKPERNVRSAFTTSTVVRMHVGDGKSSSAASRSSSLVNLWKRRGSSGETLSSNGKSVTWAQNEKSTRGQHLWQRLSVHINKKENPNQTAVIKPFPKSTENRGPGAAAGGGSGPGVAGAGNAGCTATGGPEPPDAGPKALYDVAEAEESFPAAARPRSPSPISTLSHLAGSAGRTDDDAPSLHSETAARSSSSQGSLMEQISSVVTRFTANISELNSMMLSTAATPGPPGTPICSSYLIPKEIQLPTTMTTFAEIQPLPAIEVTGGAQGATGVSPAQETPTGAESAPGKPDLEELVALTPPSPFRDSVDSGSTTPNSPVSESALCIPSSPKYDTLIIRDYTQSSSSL
row,IC50 [µM],SMILES
1,0.328,Cc1ccc(Oc2cc(C)nc(C(=O)Nc3ccc(F)c(C)n3)c2)cn1
2,0.027,CCc1cc(Oc2cncnc2)cc(C(=O)Nc2ccc(C)cn2)n1
3,0.014,CCc1cccc(NC(=O)c2cc(Oc3cncc(Cl)c3)cc(C)n2)n1
4,0.333,CCc1cc(Oc2cncc(F)c2)cc(C(=O)Nc2ccc(Cl)cn2)n1
5,0.177,Cc1cccc(NC(=O)c2cc(Oc3ccc(C(F)(F)F)nc3)cc(C)n2)n1
6,0.041,CCc1cc(Oc2cncc(F)c2)cc(C(=O)Nc2ccc(C)cn2)n1
7,0.156,CCc1cc(Oc2cncnc2)cc(C(=O)Nc2ccc(C#N)cn2)n1
8,0.0053,Cc1cc(Oc2cncc(Cl)c2)cc(C(=O)Nc2cccc(F)n2)n1
9,0.013,CCc1cccc(NC(=O)c2cc(Oc3cccnc3)cc(C)n2)n1
10,0.059,CCc1cc(Oc2cncc(F)c2)cc(C(=O)Nc2cccc(Cl)n2)n1
11,0.0022,Cc1cc(Oc2cncc(Cl)c2)cc(C(=O)Nc2ccccn2)n1
12,0.677,CCc1cc(Oc2cncnc2)cc(C(=O)Nc2cc(C)c(F)cn2)n1
13,0.0055,Cc1cc(Oc2cccnc2)cc(C(=O)Nc2ccc(Cl)cn2)n1
14,> 30,Cc1cc(Oc2ccc(C(F)(F)F)nc2)cc(C(=O)Nc2ccc(Cl)cn2)n1
15,1.11,Cc1cc(Oc2cccnc2)cc(C(=O)Nc2ccc(C(F)(F)F)cn2)n1
16,0.013,Cc1ccc(Oc2cc(C)nc(C(=O)Nc3cccc(C)n3)c2)cn1
17,0.072,Cc1ccc(NC(=O)c2cc(Oc3cncnc3)cc(C(F)F)n2)nc1
18,0.011,Cc1cc(Oc2cncc(Cl)c2)cc(C(=O)Nc2ccc(C#N)cn2)n1
19,0.013,CCc1cc(Oc2cncc(F)c2)cc(C(=O)Nc2cccc(C)n2)n1
20,> 10,Cc1cc(Oc2cccnc2)cc(C(=O)Nc2cc(C#N)ccn2)n1
21,0.025,CCc1cc(Oc2cncnc2)cc(C(=O)Nc2ccc(Cl)cn2)n1
22,0.0093,CCc1cc(Oc2cncnc2)cc(C(=O)Nc2ccc(F)cn2)n1
23,0.01,Cc1ccc(NC(=O)c2cc(Oc3cccnc3)cc(C)n2)nc1

row,IC50 [µM],SMILES
1,0.0041,Cc1cc(Oc2cccnc2)cc(C(=O)Nc2ccc(F)cn2)n1
2,0.018,Cc1cc(Oc2cncc(Cl)c2)cc(C(=O)Nc2ccc(Cl)cn2)n1
3,0.011,CCc1cc(Oc2cncc(F)c2)cc(C(=O)Nc2ccc(F)cn2)n1
4,0.019,CCc1cccc(NC(=O)c2cc(Oc3cncnc3)cc(CC)n2)n1
5,0.333,CCc1cc(Oc2cncc(F)c2)cc(C(=O)Nc2cc(F)ccn2)n1
6,0.024,CCc1cc(Oc2cncnc2)cc(C(=O)Nc2cccc(F)n2)n1
7,0.172,Cc1ccc(Oc2cc(C)nc(C(=O)Nc3cccc(Cl)n3)c2)cn1
8,0.548,Cc1cc(Oc2cncc(Cl)c2)cc(C(=O)Nc2cc(C#N)ccn2)n1
9,0.108,CCc1cc(Oc2cncc(F)c2)cc(C(=O)Nc2ccc(C#N)cn2)n1
10,0.014,Cc1cc(Oc2cncc(Cl)c2)cc(C(=O)Nc2cccc(Cl)n2)n1
11,0.018,CCc1cc(Oc2cncc(F)c2)cc(C(=O)Nc2cccc(F)n2)n1
12,0.0061,CCc1cc(Oc2cncnc2)cc(C(=O)Nc2cccc(C)n2)n1
13,0.0054,Cc1cc(Oc2cncc(C#N)c2)cc(C(=O)Nc2ccc(F)cn2)n1
14,0.255,Cc1cc(Oc2ccc(C(F)(F)F)nc2)cc(C(=O)Nc2ccc(F)cn2)n1
15,0.397,Cc1cc(Oc2ccc(C(F)(F)F)nc2)cc(C(=O)Nc2cccc(F)n2)n1
16,0.159,CCc1cc(Oc2cncc(F)c2)cc(C(=O)Nc2ccc(F)c(C)n2)n1
17,0.015,Cc1cc(Oc2cncc(C#N)c2)cc(C(=O)Nc2cc(F)ccn2)n1
18,4.88,Cc1cc(Oc2ccc(C(F)(F)F)nc2)cc(C(=O)Nc2cc(F)ccn2)n1
19,0.209,Cc1cc(Oc2cnc(C)nc2)cc(C(=O)Nc2ccc(Cl)cn2)n1
20,1.89,Cc1cc(Oc2cnc(C)nc2)cc(C(=O)Nc2cc(F)ccn2)n1
21,0.026,Cc1cc(Oc2cccnc2)cc(C(=O)Nc2cc(F)ccn2)n1
22,0.0064,Cc1ccc(NC(=O)c2cc(Oc3cncc(Cl)c3)cc(C)n2)nc1
23,0.0068,Cc1ccc(NC(=O)c2cc(Oc3cncc(F)c3)cc(C)n2)nc1

row,IC50 [µM],SMILES
1,0.152,CCc1cccc(NC(=O)c2cc(Oc3ccc(C)nc3)cc(C)n2)n1
2,0.0082,Cc1cc(Oc2cncc(F)c2)cc(C(=O)Nc2cccc(Cl)n2)n1
3,> 10,Cc1cc(Oc2cncc(Cl)c2)cc(C(=O)Nc2ccc(C(F)(F)F)cn2)n1
4,0.693,Cc1ccc(Oc2cc(C)nc(C(=O)Nc3ccc(C#N)cn3)c2)cn1
5,> 30,CCc1cc(Oc2cncnc2)cc(C(=O)Nc2ccc(C(F)(F)F)cn2)n1
6,0.468,CCc1cccc(NC(=O)c2cc(Oc3cncc(F)c3)cc(CC)n2)n1
7,0.0034,Cc1cc(Oc2cccnc2)cc(C(=O)Nc2cccc(F)n2)n1
8,0.0067,Cc1cccc(NC(=O)c2cc(Oc3cncc(Cl)c3)cc(C)n2)n1
9,0.064,Cc1ccc(Oc2cc(C)nc(C(=O)Nc3cccc(F)n3)c2)cn1
10,> 30,Cc1ccc(Oc2cc(C)nc(C(=O)Nc3ccc(C(F)(F)F)cn3)c2)cn1
11,0.966,Cc1ccc(NC(=O)c2cc(Oc3ccc(C)nc3)cc(C)n2)nc1
12,> 30,CCc1cc(Oc2cncc(F)c2)cc(C(=O)Nc2cc(C)c(F)cn2)n1
13,0.02,Cc1cccc(NC(=O)c2cc(Oc3cnc(C)nc3)cc(C)n2)n1
14,> 30,CCc1cc(Oc2cncc(F)c2)cc(C(=O)Nc2ccc(C(F)(F)F)cn2)n1
15,0.021,Cc1cc(Oc2cnc(C)nc2)cc(C(=O)Nc2cccc(F)n2)n1
16,0.387,Cc1ccc(Oc2cc(C)nc(C(=O)Nc3cc(C#N)ccn3)c2)cn1
17,0.014,Cc1cc(Oc2cccnc2)cc(C(=O)Nc2ccc(C#N)cn2)n1
18,0.014,Cc1cc(Oc2cncc(Cl)c2)cc(C(=O)Nc2ccc(F)c(C)n2)n1
19,0.0044,Cc1cccc(NC(=O)c2cc(Oc3cccnc3)cc(C)n2)n1
20,0.027,CCc1cc(Oc2cncnc2)cc(C(=O)Nc2ccc(F)c(C)n2)n1
21,1.8,Cc1ccc(Oc2cc(C)nc(C(=O)Nc3cc(F)ccn3)c2)cn1
22,0.014,CCc1cc(Oc2cncnc2)cc(C(=O)Nc2cccc(Cl)n2)n1
23,0.635,Cc1ccc(Oc2cc(C)nc(C(=O)Nc3ccc(Cl)cn3)c2)cn1

# System: not listed separately
# Assay: Rat IV/PO pharmacokinetics
# Settings: in vivo; Rat IV/PO
# Text: Additional physicochemical and pharmacological data are provided below in Tables 2-4 for Test Compounds 1 and 2 (Compounds […] and (2) as described herein).
bioavailability [%],clearance [L/h/kg],half-life [h],SMILES
30 to 76,1.15,0.47,Cc1cc(Oc2cncnc2)cc(C(=O)Nc2ccc(F)cn2)n1 [drawing 265]
67 to 75,0.549,4.7,Cc1cc(Oc2cncc(F)c2)cc(C(=O)Nc2ccc(F)cn2)n1 [drawing 266]

# Same assay, conditions: in vivo; Rat IV/PO; read-out: Vss
row,Vd [L/kg],SMILES
1,1.78,Cc1cc(Oc2cncnc2)cc(C(=O)Nc2ccc(F)cn2)n1 [drawing 265]
2,1.89,Cc1cc(Oc2cncc(F)c2)cc(C(=O)Nc2ccc(F)cn2)n1 [drawing 266]

# Same assay, conditions: in vivo; Rat PO
Cmax [µM],Tmax [h],SMILES
2.17,0.5,Cc1cc(Oc2cncnc2)cc(C(=O)Nc2ccc(F)cn2)n1 [drawing 265]
3.33,1.5,Cc1cc(Oc2cncc(F)c2)cc(C(=O)Nc2ccc(F)cn2)n1 [drawing 266]
